Where two headings read alike, the source gives them in different places. Strand notation (5' to 3'): a small letter for the sugar, then the base; units joined by * are phosphorothioate-linked, units joined directly phosphodiester-linked; [ ] holds rarer units or linkages, { } end groups; capitals alone tell only the bases. e = 2'-O-(2-methoxyethyl) (MOE); [5mC] = 5-methylcytosine; d = 2'-deoxy (DNA)
Columns and labels:
blood coagulation = assay: Ex vivo PT and aPTT in murine plasma, ISIS 404071 with LOVENOX (Example 16); set-up: species or system BALB/c mice; settings: for PT INR in murine plasma / aPTT INR in murine plasma: LOVENOX 0
Description: A control mouse group was treated with PBS, administered twice a week for 3 weeks. Five days after the last dose, the mice were sacrificed and plasma was collected. The low-molecular-weight (LMW) heparin, LOVENOX, was administered to the plasma ex vivo at varying concentrations of 0 μg/ml, 2.5 μg/ml, 5.0 μg/ml, and 7.5 μg/ml. PT and aPTT were measured 20 minutes after LOVENOX was administered.

[1] = set-up: species or system BALB/c mice; settings: mouse, in vivo; for Blood (tail bleeding, collected over 40 minutes): sc
Description: ISIS 404071 and Apixaban were evaluated in the tail bleeding model.
The saline filled tubes were weighed before and after bleeding.

[2] = Tail bleeding assay vs warfarin (Example 12); settings: mouse, in vivo; for Blood (tail bleeding, collected over 40 minutes): sc
Description: A separate control group of BALB/c mice was treated with PBS, administered subcutaneously twice a week for 3 weeks.
Mice were anesthetized in the chamber with isoflurane and a small piece of tail (approximately 4 mm from the tip) was cut with sterile scissors. The tail cut was immediately placed in a 15 mL Falcon tube filled with approximately 10 mL of 0.9% NaCl buffer solution warmed to 37° C. The blood was collected over the course of 40 minutes. The saline filled tubes were weighed both before and after bleeding.

[3] = test system: IL-1β, IL-6, IFN-γ, TNF-α, IL-8, MIP-1α, MCP-1, MIP-1β, RANTES; assay: Cytokine and chemokine assays in cynomolgus monkeys (Example 45); format: in vivo; settings: escalating dose regimen
Description: Groups, each consisting of two male and three female monkeys, were injected subcutaneously with ISIS 416838, ISIS 416850, ISIS 416858, ISIS 416864, or ISIS 417002 in escalating doses. Antisense oligonucleotide was administered to the monkeys at 5 mg/kg three times per a week for week 1; 5 mg/kg twice per week for weeks 2 and 3; 10 mg/kg three times per week for week 4; 10 mg/kg twice per week for weeks 5 and 6; 25 mg/kg three times per week for week 7; and 25 mg/kg twice per week for weeks 8, 9, 10, 11, and 12. One control group, consisting of two male and three female monkeys, was injected subcutaneously with PBS according to the same dosing regimen. An additional experimental group, consisting of two male and three female monkeys, was injected subcutaneously with ISIS 416850 in a chronic, lower dose regimen. Antisense oligonucleotide was administered to the monkeys at 5 mg/kg three times per week for week 1; 5 mg/kg twice per week for week 2 and 3; 10 mg/kg three times per week for week 4; and 10 mg/kg twice per week for weeks 5 to 12. Body weights were measured weekly. Blood samples were collected 14 days and 5 days before the start of treatment and subsequently once per week for Factor 11 protein activity analysis in plasma, fibrinogen measurement, PT and aPTT measurements, bleeding times, and measurement of various hematologic factors. On day 85, the monkeys were euthanized by exsanguination while under deep anesthesia, and organs harvested for further analysis.
Blood samples obtained from the monkey groups treated with PBS, ISIS 416850 and ISIS 416858 administered in the escalating dose regimen were sent to Pierce Biotechnology (Woburn, Mass.) for measurement of chemokine and cytokine levels. Levels of IL-1β, IL-6, IFN-γ, and TNF-α were measured using the respective primate antibodies and levels of IL-8, MIP-1α, MCP-1, MIP-1β and RANTES were measured using the respective cross-reacting human antibodies. Measurements were taken 14 days before the start of treatment and on day 85, when the monkeys were euthanized.

[4] = Tolerability in CD1 mice: kidney function, BUN (Example 37); settings: plasma, 50 mg/kg s.c. twice per week for 6 weeks
[5] = Tolerability in Sprague-Dawley rats: hematology assays (Example 42); settings: 50 mg/kg s.c. twice per week for 6 weeks, blood
[6] = Tolerability in Sprague-Dawley rats: liver function (Example 42); settings: 50 mg/kg s.c. twice per week for 6 weeks, plasma
[7] = Tolerability in Sprague-Dawley rats: body weight and organ weight (Example 42); settings: 50 mg/kg s.c. twice per week for 6 weeks; for Change in Kidney weight / Change in Liver weight / Change in Spleen weight: end of study; for Change in body weight: percent increase over the PBS control weight
[8] = Tolerability in Sprague-Dawley rats: kidney function (Example 42); settings: 50 mg/kg s.c. twice per week for 6 weeks; for BUN / Creatinine: plasma
[9] = ISIS 404071 10 mg/kg s.c. twice a week for 3 weeks
[10] = ISIS 404071 20 mg/kg s.c. twice a week for 3 weeks
[11] = ISIS 404071 40 mg/kg s.c. twice a week for 3 weeks
[12] = murine plasma, ISIS 404071 10-40 mg/kg in vivo, LOVENOX 0-7.5 μg/ml ex vivo
[13] = day −14 (before start of treatment)

For “ISIS 404071: antisense oligonucleotide targeted to murine Factor 11 mRNA, TGGTAATCCACTTTCAGAGG, target start site 869 (chemistry not given here)”, the “PT INR in murine plasma” value (blood coagulation; [9]) was 0.97 INR, the “aPTT INR in murine plasma” value (blood coagulation; [9]) was 1.14 INR and the “PT INR in murine plasma” value (blood coagulation; [10]) was 1.00 INR. The “aPTT INR in murine plasma” value (blood coagulation; [10]) was 1.28 INR, the “PT INR in murine plasma” value (blood coagulation; [11]) was 0.97 INR and the “aPTT INR in murine plasma” value (blood coagulation; [11]) was 1.52 INR. For the same substance, the “PT” value (blood coagulation; [12]) was “does not significantly increase PT”, the “aPTT” value (blood coagulation; [12]) was “also increases aPTT in a dose-dependent manner” and the “bleeding in tail bleeding assay” value [1] was “did not affect bleeding”. The “Blood (tail bleeding, collected over 40 minutes)” value ([1]; 1.25 mg/kg) was 0.00 g, the “Blood (tail bleeding, collected over 40 minutes)” value ([1]; 5 mg/kg) was 0.00 g and the “Blood (tail bleeding, collected over 40 minutes)” value ([1]; 10 mg/kg) was 0.04 g. For the same substance, the “Blood (tail bleeding, collected over 40 minutes)” value ([1]; 25 mg/kg) was 0.01 g, the “Blood (tail bleeding, collected over 40 minutes)” value ([1]; 50 mg/kg) was 0.01 g and the “bleeding in tail bleeding assay” value [2] was “did not affect bleeding”. The “Blood (tail bleeding, collected over 40 minutes)” value ([2]; 1.25 mg/kg) was 0.00 g, the “Blood (tail bleeding, collected over 40 minutes)” value ([2]; 5 mg/kg) was 0.03 g and the “Blood (tail bleeding, collected over 40 minutes)” value ([2]; 10 mg/kg) was 0.00 g. The “Blood (tail bleeding, collected over 40 minutes)” value ([2]; 20 mg/kg) was 0.06 g and the “Blood (tail bleeding, collected over 40 minutes)” value ([2]; 40 mg/kg) was 0.03 g.
“ISIS 416850: MOE gapmer, nucleobases 1275 to 1318 of SEQ ID NO: 1 (Table 8) (antisense TGCACAGTTTCTGGCAGGCC; MOE gapmer, wing and gap sizes not given here)” gave an IFN-γ level ([3]; day 85) of 18 pg/mL, an IL-1β level ([3]; day 85) of 13 pg/mL and an IL-6 level ([3]; day 85) of 17 pg/mL. The IL-8 level ([3]; day 85) was 172 pg/mL, the MCP-1 level ([3]; day 85) was 2330 pg/mL and the MIP-1α level ([3]; day 85) was 41 pg/mL. The MIP-1β level ([3]; day 85) was 216 pg/mL, the RANTES level ([3]; day 85) was 83981 pg/mL and the TNF-α level ([3]; day 85) was 27 pg/mL. The IFN-γ level [3, 13] was 126 pg/mL, the IL-1β level [3, 13] was 3 pg/mL and the IL-6 level [3, 13] was 30 pg/mL. For the same substance, the IL-8 level [3, 13] was 1659 pg/mL, the MCP-1 level [3, 13] was 1384 pg/mL and the MIP-1α level [3, 13] was 28 pg/mL. It also gave an MIP-1β level [3, 13] of 137 pg/mL, an RANTES level [3, 13] of 75335 pg/mL and a TNF-α level [3, 13] of 14 pg/mL. The BUN [4] was 24 mg/dL.
Work on “ISIS 416858: MOE gapmer, nucleobases 1275 to 1318 of SEQ ID NO: 1 (Table 8) (antisense ACGGCATTGGTGCACAGTTT; MOE gapmer, wing and gap sizes not given here)” yielded an IFN-γ level ([3]; day 85) of 18 pg/mL, an IL-1β level ([3]; day 85) of 5 pg/mL and an IL-6 level ([3]; day 85) of 25 pg/mL. It also gave an IL-8 level ([3]; day 85) of 303 pg/mL, an MCP-1 level ([3]; day 85) of 1752 pg/mL and an MIP-1α level ([3]; day 85) of 41 pg/mL. It also gave an MIP-1β level ([3]; day 85) of 221 pg/mL, an RANTES level ([3]; day 85) of 125511 pg/mL and a TNF-α level ([3]; day 85) of 45 pg/mL. It also gave an IFN-γ level [3, 13] of 60 pg/mL, an IL-1β level [3, 13] of 5 pg/mL and an IL-6 level [3, 13] of 9 pg/mL. For the same substance, the IL-8 level [3, 13] was 1552 pg/mL, the MCP-1 level [3, 13] was 1252 pg/mL and the MIP-1α level [3, 13] was 36 pg/mL. It also gave an MIP-1β level [3, 13] of 122 pg/mL, an RANTES level [3, 13] of 112253 pg/mL and a TNF-α level [3, 13] of 9 pg/mL. It also gave a BUN [4] of 23 mg/dL.
Work on “ISIS 416864: MOE gapmer, nucleobases 1275 to 1318 of SEQ ID NO: 1 (Table 8) (antisense GGCAGCGGACGGCATTGGTG; MOE gapmer, wing and gap sizes not given here)” yielded a BUN [4] of 24 mg/dL.
“ISIS 445522: 5-8-5 or 6-8-6 MOE microwalk gapmer (Table 44) (antisense eG*e[5mC]*eA*e[5mC]*eA*dG*dT*dT*dT*d[5mC]*dT*dG*dG*e[5mC]*eA*eG*eG*e[5mC])” showed an HCT [5] of 47%, a Lymphocyte [5] of 84% and a Neutrophil [5] of 13%. The Platelets [5] was 1334 nL⁻¹, the RBC [5] was 7.7 pL⁻¹ and the WBC [5] was 18 nL⁻¹. It also gave a hemoglobin [5] of 13.6 g/dL, a monocytes [5] of 2.8% and an ALT [6] of 240 IU/L. It also gave an AST [6] of 138 IU/L, an Albumin [6] of 3.6 and a Bilirubin [6] of 0.47 mg/dL. For the same substance, the “Change in Kidney weight” value [7] was “+19%”, the “Change in Liver weight” value [7] was “+26%” and the “Change in Spleen weight” value [7] was “+184%”. The “Change in body weight” value [7] was −13%, the BUN [8] was 25 mg/dL and the Creatinine [8] was 0.4 mg/dL. It also gave a Urine protein/creatinine ratio [8] of 6.4.
“ISIS 445531: 5-8-5 or 6-8-6 MOE microwalk gapmer (Table 44) (antisense eG*eG*e[5mC]*eA*eT*dT*dG*dG*dT*dG*d[5mC]*dA*d[5mC]*eA*eG*eT*eT*eT)” showed an HCT [5] of 50%, a Lymphocyte [5] of 86% and a Neutrophil [5] of 10%. For the same substance, the Platelets [5] was 1023 nL⁻¹, the RBC [5] was 8.8 pL⁻¹ and the WBC [5] was 13 nL⁻¹. For the same substance, the hemoglobin [5] was 14.8 g/dL, the monocytes [5] was 2.8% and the ALT [6] was 272 IU/L. The AST [6] was 137 IU/L, the Albumin [6] was 3.7 and the Bilirubin [6] was 0.12 mg/dL. For the same substance, the “Change in Kidney weight” value [7] was “+4%”, the “Change in Liver weight” value [7] was “+17%” and the “Change in Spleen weight” value [7] was “+89%”. For the same substance, the “Change in body weight” value [7] was −10%, the BUN [8] was 23 mg/dL and the Creatinine [8] was 0.4 mg/dL. It also gave a Urine protein/creatinine ratio [8] of 3.4.

From patent publication US20230263822A1, “MODULATION OF FACTOR 11 EXPRESSION” (Ionis Pharmaceuticals, Inc., priority 2008, published 2023)
